Experimental data from patent US20060069132A1, “Azolecarboxamide herbicides” (priority 2004, published 2006).

Legend:
giant foxtail = assay: Test B pre-/postemergence herbicide test; format: in vivo, Setaria faberi; conditions: for Foxtail, Giant plant response rating: postemergence, visual rating, scale 0 (no effect) to 100 (complete control)
In short: (§1)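 Test chemicals in a non-phytotoxic solvent mixture with surfactant were applied preemergence to seeded species and postemergence to plants 2-18 cm tall (1- to 4-leaf stage); rice and barnyardgrass were also tested in a flooded paddy at the 2-leaf stage. Visual rating versus controls after 13-15 days in greenhouse, scale 0 (no effect) to 100 (complete control).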

blackgrass = assay: Test B postemergence herbicide test; format: in vivo, Alopecurus myosuroides; conditions: postemergence, visual rating, scale 0 (no effect) to 100 (complete control)
In short: (§2)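 Plants grow to 1- to 4-leaf stage (2–18 cm) for postemergence spraying, or to 2-leaf stage for the paddy test. Formulated compound is applied. Greenhouse holding lasts 13–15 days. Response is scored visually relative to controls, 0 no effect to 100 complete control; a dash means no result.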

ducksalad [1] = assay: Test C flooded paddy test; format: in vivo, Heteranthera limosa
barnyardgrass [2] = assay: Test B flooded paddy test; format: in vivo, Echinochloa crus-galli; conditions: 1000 g ai/ha, visual rating, scale 0 to 100 (0 no effect, 100 complete control), 13 to 15 days
In short: as §2

ducksalad [3] = assay: Test B flooded paddy test; format: in vivo, Heteranthera limosa; conditions: 1000 g ai/ha, visual rating, scale 0 to 100 (0 no effect, 100 complete control), 13 to 15 days
In short: as §2

rice [4] = assay: Test B pre-/postemergence herbicide test; format: in vivo, Oryza sativa; conditions: preemergence
In short: as §1

large crabgrass = assay: Test B pre-/postemergence herbicide test; format: in vivo, Digitaria sanguinalis; conditions: for Crabgrass, Large plant response rating: postemergence, visual rating, scale 0 (no effect) to 100 (complete control)
In short: as §1

cocklebur = assay: Test B pre-/postemergence herbicide test; format: in vivo, Xanthium strumarium; conditions: for Cocklebur plant response rating: postemergence, visual rating, scale 0 (no effect) to 100 (complete control)
In short: (§3)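 Species tested were Echinochloa crus-galli, Ipomoea coccinea, Xanthium strumarium and Oryza sativa, treated both before emergence and at the 1- to 4-leaf stage; rice and barnyardgrass were also tested under flooding at 2 leaves. Greenhouse incubation lasted 13–15 days before visual 0–100 scoring.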

corn = assay: Test B pre-/postemergence herbicide test; format: in vivo, Zea mays; conditions: for Corn plant response rating: postemergence, visual rating, scale 0 (no effect) to 100 (complete control)
In short: as §1

pigweed = assay: Test B pre-/postemergence herbicide test; format: in vivo, Amaranthus retroflexus; conditions: for Pigweed plant response rating: postemergence, visual rating, scale 0 (no effect) to 100 (complete control)
In short: as §1

barnyardgrass [5] = assay: Test B pre-/postemergence herbicide test; format: in vivo, Echinochloa crus-galli; conditions: for Barnyardgrass plant response rating: postemergence, visual rating, scale 0 (no effect) to 100 (complete control)
In short: as §3

[6] = test system: small flower umbrella sedge; assay: Test B flooded paddy test; format: in vivo, Cyperus difformis; conditions: 1000 g ai/ha, visual rating, scale 0 to 100 (0 no effect, 100 complete control), 13 to 15 days
In short: as §2

lambsquarters = assay: Test B pre-/postemergence herbicide test; format: in vivo, Chenopodium album; conditions: for Lambsquarters plant response rating: postemergence, visual rating, scale 0 (no effect) to 100 (complete control)
In short: as §1

rice [7] = assay: Test B flooded paddy test; format: in vivo, Oryza sativa; conditions: 1000 g ai/ha, visual rating, scale 0 to 100 (0 no effect, 100 complete control), 13 to 15 days
In short: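 Paddy species grown to the 2-leaf stage under flooding; blackgrass sprayed postemergence at 2–18 cm (1- to 4-leaf stage). Plants kept in a greenhouse for 13 to 15 days, then visually rated against controls on 0 (no effect) to 100 (complete control).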

velvetleaf = assay: Test B pre-/postemergence herbicide test; format: in vivo, Abutilon theophrasti; conditions: for Velvetleaf plant response rating: postemergence, visual rating, scale 0 (no effect) to 100 (complete control)
In short: as §1

Surinam grass = assay: Test B pre-/postemergence herbicide test; format: in vivo, Urochloa decumbens; conditions: for Surinam Grass plant response rating: postemergence, visual rating, scale 0 (no effect) to 100 (complete control)
In short: as §1

wheat = assay: Test B postemergence herbicide test; format: in vivo, Triticum aestivum; set-up: key to Wheat plant response rating: 0 = no effect, 100 = complete control; conditions: postemergence, visual rating, scale 0 (no effect) to 100 (complete control)
In short: (§4)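 Formulated test chemicals went onto postemergence plants measuring 2 to 18 cm, at one to four leaves. For the paddy assay, species had reached two leaves. Scoring took place 13–15 days later by eye, relative to untreated plants, using 0 for no effect up to 100 for full control.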

rice [8] = assay: Test C flooded paddy test; format: in vivo, Oryza sativa
In short: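 Plants were grown to the 1- to 4-leaf stage (2–18 cm) and then treated postemergence, or grown to the 2-leaf stage for the flooded paddy test. They were held in a greenhouse for 12 to 14 days and then scored by eye against controls, where 0 is no effect and 100 is complete control.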

morningglory = assay: Test B pre-/postemergence herbicide test; format: in vivo, Ipomoea coccinea; conditions: for Morningglory plant response rating: postemergence, visual rating, scale 0 (no effect) to 100 (complete control)
In short: as §3

[9] = test system: smallflower umbrella sedge; assay: Test C flooded paddy test; format: in vivo, Cyperus difformis
wild oat = assay: Test B postemergence herbicide test; format: in vivo, Avena fatua; conditions: postemergence, visual rating, scale 0 (no effect) to 100 (complete control)
In short: as §4

barnyardgrass [10] = assay: Test C flooded paddy test; format: in vivo, Echinochloa crus-galli
In short: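 Greenhouse test with a 12–14 day hold after application and visual comparison with controls. Emerged plants were 1- to 4-leaf stage (2–18 cm) when sprayed postemergence, and the paddy barnyardgrass was at 2 leaves under flooded conditions. 100 = complete control.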

[11] = 125 g ai/ha, 0 = no effect, 100 = complete control, preemergence
[12] = 500 g ai/ha, visual rating 0-100, 0 no effect, 100 complete control, preemergence
[13] = 62 g ai/ha, scale 0 to 100 (0 no effect, 100 complete control)
[14] = 125 g ai/ha, scale 0 to 100 (0 no effect, 100 complete control)
[15] = 250 g ai/ha, scale of 0 to 100, 0 is no effect, 100 is complete control
[16] = 500 g ai/ha, visual rating after 12 to 14 days, scale 0 to 100 (0 no effect, 100 complete control)

CCc1nn(C(C)(C)C)cc1C(=O)Nc1cccc(C(C)=O)c1 [Compound 187] was tested, and the “Foxtail, Giant plant response rating (0 to 100 scale)” value (giant foxtail; [11]) was 10, the “Plant response rating, Foxtail, Giant” value (giant foxtail; [12]) was 70 and the “Foxtail, Giant plant response rating” value (giant foxtail; 125 g ai/ha) was 10. The “Foxtail, Giant plant response rating” value (giant foxtail; 500 g ai/ha) was 10, the “Blackgrass plant response rating” value (blackgrass; 125 g ai/ha) was 0 and the “Blackgrass plant response rating” value (blackgrass; 500 g ai/ha) was 0. The “Ducksalad plant response rating” value (ducksalad [1]; [13]) was 20, the “Ducksalad plant response rating” value (ducksalad [1]; [14]) was 40 and the “Ducksalad plant response rating” value (ducksalad [1]; [15]) was 85. For the same molecule, the “Plant response rating, Ducksalad” value (ducksalad [1]; [16]) was 90, the “Barnyardgrass plant response rating” value (barnyardgrass [2]) was 60 and the “Ducksalad plant response rating” value (ducksalad [3]) was 90. The “Rice plant response rating (0 to 100 scale)” value (rice [4]; 125 g ai/ha, 0 = no effect, 100 = complete control) was 30, the “Plant response rating, Rice” value (rice [4]; 500 g ai/ha, visual rating 0-100, 0 no effect, 100 complete control) was 80 and the “Crabgrass, Large plant response rating (0 to 100 scale)” value (large crabgrass; [11]) was 70. The “Plant response rating, Crabgrass, Large” value (large crabgrass; [12]) was 100, the “Crabgrass, Large plant response rating” value (large crabgrass; 125 g ai/ha) was 10 and the “Crabgrass, Large plant response rating” value (large crabgrass; 500 g ai/ha) was 10. For the same molecule, the “Cocklebur plant response rating (0 to 100 scale)” value (cocklebur; [11]) was 0, the “Plant response rating, Cocklebur” value (cocklebur; [12]) was 0 and the “Cocklebur plant response rating” value (cocklebur; 125 g ai/ha) was 30. The “Cocklebur plant response rating” value (cocklebur; 500 g ai/ha) was 70, the “Corn plant response rating (0 to 100 scale)” value (corn; [11]) was 20 and the “Plant response rating, Corn” value (corn; [12]) was 60. For the same molecule, the “Corn plant response rating” value (corn; 125 g ai/ha) was 0, the “Corn plant response rating” value (corn; 500 g ai/ha) was 20 and the “Pigweed plant response rating (0 to 100 scale)” value (pigweed; [11]) was 20. For the same molecule, the “Plant response rating, Pigweed” value (pigweed; [12]) was 60, the “Pigweed plant response rating” value (pigweed; 125 g ai/ha) was 20 and the “Pigweed plant response rating” value (pigweed; 500 g ai/ha) was 20. The “Barnyardgrass plant response rating (0 to 100 scale)” value (barnyardgrass [5]; [11]) was 70, the “Plant response rating, Barnyardgrass” value (barnyardgrass [5]; [12]) was 90 and the “Barnyardgrass plant response rating” value (barnyardgrass [5]; 125 g ai/ha) was 10. The “Barnyardgrass plant response rating” value (barnyardgrass [5]; 500 g ai/ha) was 10, the “Sedge, Umbrella plant response rating” value [6] was 80 and the “Lambsquarters plant response rating (0 to 100 scale)” value (lambsquarters; [11]) was 20. For the same molecule, the “Plant response rating, Lambsquarters” value (lambsquarters; [12]) was 40, the “Lambsquarters plant response rating” value (lambsquarters; 125 g ai/ha) was 0 and the “Lambsquarters plant response rating” value (lambsquarters; 500 g ai/ha) was 0. For the same molecule, the “Rice plant response rating” value (rice [7]) was 30, the “Velvetleaf plant response rating (0 to 100 scale)” value (velvetleaf; [11]) was 10 and the “Plant response rating, Velvetleaf” value (velvetleaf; [12]) was 20. The “Velvetleaf plant response rating” value (velvetleaf; 125 g ai/ha) was 0, the “Velvetleaf plant response rating” value (velvetleaf; 500 g ai/ha) was 10 and the “Surinam Grass plant response rating (0 to 100 scale)” value (Surinam grass; [11]) was 30. The “Plant response rating, Surinam Grass” value (Surinam grass; [12]) was 70, the “Surinam Grass plant response rating” value (Surinam grass; 125 g ai/ha) was 10 and the “Surinam Grass plant response rating” value (Surinam grass; 500 g ai/ha) was 10. The “Wheat plant response rating” value (wheat; 125 g ai/ha) was 0, the “Wheat plant response rating” value (wheat; 500 g ai/ha) was 0 and the “Rice plant response rating” value (rice [8]; [13]) was 15. For the same molecule, the “Rice plant response rating” value (rice [8]; [14]) was 30, the “Rice plant response rating” value (rice [8]; [15]) was 50 and the “Plant response rating, Rice” value (rice [8]; [16]) was 65. The “Morningglory plant response rating (0 to 100 scale)” value (morningglory; [11]) was 20, the “Plant response rating, Morningglory” value (morningglory; [12]) was 30 and the “Morningglory plant response rating” value (morningglory; 125 g ai/ha) was 20. For the same molecule, the “Morningglory plant response rating” value (morningglory; 500 g ai/ha) was 20, the “Sedge, Umbrella plant response rating” value [9, 13] was 20 and the “Sedge, Umbrella plant response rating” value [9, 14] was 65. The “Sedge, Umbrella plant response rating” value [9, 15] was 80, the “Plant response rating, Sedge, Umbrella” value [9, 16] was 85 and the “Oat, Wild plant response rating” value (wild oat; 125 g ai/ha) was 10. The “Oat, Wild plant response rating” value (wild oat; 500 g ai/ha) was 20, the “Barnyardgrass plant response rating” value (barnyardgrass [10]; [13]) was 0 and the “Barnyardgrass plant response rating” value (barnyardgrass [10]; 125 g ai/ha, scale of 0 to 100, 0 is no effect, 100 is complete control) was 25. The “Barnyardgrass plant response rating” value (barnyardgrass [10]; [15]) was 60 and the “Plant response rating, Barnyardgrass” value (barnyardgrass [10]; [16]) was 75.
